The subject of this experiment is P. falciparum K1 (strain resistant to chloroquine and pyrimethamine), erythrocytic stages. Kind of experiment: Plasmodium falciparum in vitro assay, [3H] hypoxanthine incorporation. Type of experiment: cell-based. The settings on record: Plasmodium falciparum, K1, P. falciparum strain K1; [3H] hypoxanthine incorporation; read-out: IC50 (nM) on K1. The method in brief:
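K1 strain parasites grown in human red cells, 2.5% haematocrit, 0.3% parasitaemia, 37 °C, 4% CO2/3% O2; compounds in seven serial doubling dilutions.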

This passage reports IC50 results from US20110224210A1, “NOVEL BIS-AMIDES AS ANTI-MALARIAL AGENTS” (priority 2008, published 2011).

SMILES strings stand for the structures.

Broadly, the IC50 is the point on the concentration scale where inhibition reaches its midpoint.

Take `CC(=O)N1CCN(c2ccc(CN(C(=O)C=Cc3ccc(C(F)(F)F)cc3)[C@@H](Cc3ccccc3)C(=O)N(C)CCN(C)Cc3ccc4c(c3)OCO4)cc2)CC1` [Example 249, (S)-N-[4-(4-Acetyl-piperazin-1-yl)-benzyl]-N-(1-{[2-(benzo[1,3]dioxol-5-ylmethyl-methyl-amino)-ethyl]-methyl-carbamoyl}-2-phenyl-ethyl)-3-(4-trifluoromethyl-phenyl)-acrylamide]: the IC50 was 39 nM.

Turning to `CC(=O)N1CCN(c2ccc(CN(C(=O)C=Cc3ccc(C(F)(F)F)cc3)[C@@H](Cc3ccccc3)C(=O)N(C)CCN(C)Cc3cncnc3)cc2)CC1` [Example 250, (S)-N-[4-(4-Acetyl-piperazin-1-yl)-benzyl]-N-(1-{methyl-[2-(methyl-pyrimidin-5-ylmethyl-amino)-ethyl]-carbamoyl}-2-phenyl-ethyl)-3-(4-trifluoromethyl-phenyl)-acrylamide], the IC50 came to 27 nM.

Consider `CC(=O)N1CCN(c2ccc(CN(C(=O)C=Cc3ccc(C(F)(F)F)cc3)[C@@H](Cc3ccccc3)C(=O)N(C)CCN(C)Cc3ccc(C)c(F)c3F)cc2)CC1` [Example 251, (S)-N-[4-(4-Acetyl-piperazin-1-yl)-benzyl]-N-[1-({2-[(2,3-difluoro-4-methyl-benzyl)-methyl-amino]-ethyl}-methyl-carbamoyl)-2-phenyl-ethyl]-3-(4-trifluoromethyl-phenyl)-acrylamide], for which the IC50 was determined as 53 nM.

For `CC(=O)N1CCN(c2ccc(CN(C(=O)C=Cc3ccc(C(F)(F)F)cc3)[C@@H](Cc3ccccc3)C(=O)N(C)CCN(C)Cc3cnc[nH]3)cc2)CC1` [Example 252, (S)-N-[4-(4-Acetyl-piperazin-1-yl)-benzyl]-N-[1-({2-[(3H-imidazol-4-ylmethyl)-methyl-amino]-ethyl}-methyl-carbamoyl)-2-phenyl-ethyl]-3-(4-trifluoromethyl-phenyl)-acrylamide], the IC50 came to 80 nM. `CC(=O)N1CCN(c2ccc(CN(C(=O)C=Cc3ccc(C(F)(F)F)cc3)[C@@H](Cc3ccccc3)C(=O)N(C)CCN(C)Cc3ccncc3)cc2)CC1` [Example 253, (S)-N-[4-(4-Acetyl-piperazin-1-yl)-benzyl]-N-(1-{methyl-[2-(methyl-pyridin-4-ylmethyl-amino)-ethyl]-carbamoyl}-2-phenyl-ethyl)-3-(4-trifluoromethyl-phenyl)-acrylamide]: the IC50 was found to be 19 nM. With `CC(=O)N1CCN(c2ccc(CN(C(=O)C=Cc3ccc(C(F)(F)F)cc3)[C@@H](Cc3ccccc3)C(=O)N(C)CCN(C)Cc3ccccc3)cc2)CC1` [Example 254, (S)-N-[4-(4-Acetyl-piperazin-1-yl)-benzyl]-N-(1-{[2-(benzyl-methyl-amino)-ethyl]-methyl-carbamoyl}-2-phenyl-ethyl)-3-(4-trifluoromethyl-phenyl)-acrylamide], the 50% inhibitory concentration (IC50) came to 76 nM. Consider `CN(CCN(C)C(=O)[C@H](Cc1ccccc1)N(Cc1ccc(N2CCOCC2)cc1)C(=O)C=Cc1ccc(C(F)(F)F)cc1)Cc1ccc(N(C)CCO)cc1` [Example 255, (S)-N-(1-{[2-({4-[(2-Hydroxy-ethyl)-methyl-amino]-benzyl}-methyl-amino)-ethyl]-methyl-carbamoyl}-2-phenyl-ethyl)-N-(4-morpholin-4-yl-benzyl)-3-(4-trifluoromethyl-phenyl)-acrylamide], for which the IC50 is 59 nM. With `CN(CCN(C)C(=O)[C@H](Cc1ccccc1)N(Cc1ccc(N2CCOCC2)cc1)C(=O)C=Cc1ccc(C(F)(F)F)cc1)Cc1ccc(O)cc1` [Example 256, (S)-N-[1-({2-[(4-Hydroxy-benzyl)-methyl-amino]-ethyl}-methyl-carbamoyl)-2-phenyl-ethyl]-N-(4-morpholin-4-yl-benzyl)-3-(4-trifluoromethyl-phenyl)-acrylamide], the IC50 was found to be 39 nM. For the compound `CCN(CC)c1ccc(CN(C)CCN(C)C(=O)[C@H](Cc2ccccc2)N(Cc2ccc(N3CCOCC3)cc2)C(=O)C=Cc2ccc(C(F)(F)F)cc2)cc1` [Example 257, (S)-N-[1-({2-[(4-Diethylamino-benzyl)-methyl-amino]-ethyl}-methyl-carbamoyl)-2-phenyl-ethyl]-N-(4-morpholin-4-yl-benzyl)-3-(4-trifluoromethyl-phenyl)-acrylamide], the IC50 was found to be 65 nM.

For the compound `CN(CCN(C)C(=O)[C@H](Cc1ccccc1)N(Cc1ccc(N2CCOCC2)cc1)C(=O)C=Cc1ccc(C(F)(F)F)cc1)Cc1cccc(O)c1` [Example 258, (S)-N-[1-({2-[(3-Hydroxy-benzyl)-methyl-amino]-ethyl}-methyl-carbamoyl)-2-phenyl-ethyl]-N-(4-morpholin-4-yl-benzyl)-3-(4-trifluoromethyl-phenyl)-acrylamide], the IC50 is 43 nM. Consider `CN(CCN(C)C(=O)[C@H](Cc1ccccc1)N(Cc1ccc(N2CCOCC2)cc1)C(=O)C=Cc1ccc(C(F)(F)F)cc1)Cc1cccnc1` [Example 259, (S)-N-(1-{Methyl-[2-(methyl-pyridin-3-ylmethyl-amino)-ethyl]-carbamoyl}-2-phenyl-ethyl)-N-(4-morpholin-4-yl-benzyl)-3-(4-trifluoromethyl-phenyl)-acrylamide], for which the IC50 is 32 nM.

Turning to `CN(CCN(C)C(=O)[C@H](Cc1ccccc1)N(Cc1ccc(N2CCOCC2)cc1)C(=O)C=Cc1ccc(C(F)(F)F)cc1)Cc1cccc(OCCO)c1` [Example 260, (S)-N-{1-[(2-{[3-(2-Hydroxy-ethoxy)-benzyl]-methyl-amino}-ethyl)-methyl-carbamoyl]-2-phenyl-ethyl}-N-(4-morpholin-4-yl-benzyl)-3-(4-trifluoromethyl-phenyl)-acrylamide], the IC50 amounted to 14 nM. Consider `CN(CCN(C)C(=O)[C@H](Cc1ccccc1)N(Cc1ccc(N2CCOCC2)cc1)C(=O)C=Cc1ccc(C(F)(F)F)cc1)Cc1cccc(C#N)c1` [Example 261, (S)-N-[1-({2-[(3-Cyano-benzyl)-methyl-amino]-ethyl}-methyl-carbamoyl)-2-phenyl-ethyl]-N-(4-morpholin-4-yl-benzyl)-3-(4-trifluoromethyl-phenyl)-acrylamide], for which the IC50 came to 48 nM. For `CC(C)Oc1ccc(CN(C)CCN(C)C(=O)[C@H](Cc2ccccc2)N(Cc2ccc(N3CCOCC3)cc2)C(=O)C=Cc2ccc(C(F)(F)F)cc2)cc1` [Example 262, (S)-N-[1-({2-[(4-Isopropoxy-benzyl)-methyl-amino]-ethyl}-methyl-carbamoyl)-2-phenyl-ethyl]-N-(4-morpholin-4-yl-benzyl)-3-(4-trifluoromethyl-phenyl)-acrylamide], the IC50 was found to be 17 nM. Regarding `CN(CCN(C)C(=O)[C@H](Cc1ccccc1)N(Cc1ccc(N2CCOCC2)cc1)C(=O)C=Cc1ccc(C(F)(F)F)cc1)Cc1ccc2c(c1)OCCN2C` [Example 263, (S)-N-[1-(Methyl-{2-[methyl-(4-methyl-3,4-dihydro-2H-benzo[1,4]oxazin-7-ylmethyl)-amino]-ethyl}-carbamoyl)-2-phenyl-ethyl]-N-(4-morpholin-4-yl-benzyl)-3-(4-trifluoromethyl-phenyl)-acrylamide], the IC50 turned out to be 72 nM.

Turning to `COc1ccc(CN(C)CCN(C)C(=O)[C@H](Cc2ccccc2)N(Cc2ccc(N3CCOCC3)cc2)C(=O)C=Cc2ccc(C(F)(F)F)cc2)cn1` [Example 264, (S)-N-[1-({2-[(6-Methoxy-pyridin-3-ylmethyl)-methyl-amino]-ethyl}-methyl-carbamoyl)-2-phenyl-ethyl]-N-(4-morpholin-4-yl-benzyl)-3-(4-trifluoromethyl-phenyl)-acrylamide], the IC50 came out at 39 nM. The value for `CN(CCN(C)C(=O)[C@H](Cc1ccccc1)N(Cc1ccc(N2CCOCC2)cc1)C(=O)C=Cc1ccc(C(F)(F)F)cc1)Cc1nccs1` [Example 265, (S)-N-(1-{Methyl-[2-(methyl-thiazol-2-ylmethyl-amino)-ethyl]-carbamoyl}-2-phenyl-ethyl)-N-(4-morpholin-4-yl-benzyl)-3-(4-trifluoromethyl-phenyl)-acrylamide] was 36 nM; that for `CN(CCN(C)C(=O)[C@H](Cc1ccccc1)N(Cc1ccc(N2CCOCC2)cc1)C(=O)C=Cc1ccc(C(F)(F)F)cc1)Cc1ccc2c(c1)OCO2` [Example 266, (S)-N-(1-{[2-(Benzo[1,3]dioxol-5-ylmethyl-methyl-amino)-ethyl]-methyl-carbamoyl}-2-phenyl-ethyl)-N-(4-morpholin-4-yl-benzyl)-3-(4-trifluoromethyl-phenyl)-acrylamide] was 58 nM. The figure for `CN(CCN(C)C(=O)[C@H](Cc1ccccc1)N(Cc1ccc(N2CCOCC2)cc1)C(=O)C=Cc1ccc(C(F)(F)F)cc1)Cc1cncnc1` [Example 267, (S)-N-(1-{Methyl-[2-(methyl-pyrimidin-5-ylmethyl-amino)-ethyl]-carbamoyl}-2-phenyl-ethyl)-N-(4-morpholin-4-yl-benzyl)-3-(4-trifluoromethyl-phenyl)-acrylamide] is 40 nM. On to `Cc1ccc(CN(C)CCN(C)C(=O)[C@H](Cc2ccccc2)N(Cc2ccc(N3CCOCC3)cc2)C(=O)C=Cc2ccc(C(F)(F)F)cc2)c(F)c1F` [Example 268, (S)-N-[1-({2-[(2,3-Difluoro-4-methyl-benzyl)-methyl-amino]-ethyl}-methyl-carbamoyl)-2-phenyl-ethyl]-N-(4-morpholin-4-yl-benzyl)-3-(4-trifluoromethyl-phenyl)-acrylamide], for which the IC50 stood at 80 nM. Consider `CN(CCN(C)C(=O)[C@H](Cc1ccccc1)N(Cc1ccc(N2CCOCC2)cc1)C(=O)C=Cc1ccc(C(F)(F)F)cc1)Cc1cnc[nH]1` [Example 269, (S)-N-[1-({2-[(3H-Imidazol-4-ylmethyl)-methyl-amino]-ethyl}-methyl-carbamoyl)-2-phenyl-ethyl]-N-(4-morpholin-4-yl-benzyl)-3-(4-trifluoromethyl-phenyl)-acrylamide], for which the IC50 came out at 63 nM. Turning to `CN(CCN(C)C(=O)[C@H](Cc1ccccc1)N(Cc1ccc(N2CCOCC2)cc1)C(=O)C=Cc1ccc(C(F)(F)F)cc1)Cc1ccncc1` [Example 270, (S)-N-(1-{Methyl-[2-(methyl-pyridin-4-ylmethyl-amino)-ethyl]-carbamoyl}-2-phenyl-ethyl)-N-(4-morpholin-4-yl-benzyl)-3-(4-trifluoromethyl-phenyl)-acrylamide], the IC50 was 25 nM.
